From article PMC12169608, “Peptidomimetic Phenoxymethyl Ketone Warheads as Potent Dual-Mode Inhibitors against SARS-CoV‑2 M^pro and Cathepsin” (Journal of Medicinal Chemistry, 2025)
Like-named read-outs stand apart in the source and are kept apart here.

What was measured:
[1] = biological target: T1, human cathepsin L (hCTSL) (Homo sapiens, UniProt P07711); assay: hCTSL biochemical assay
T1 construct: purchased R&D Systems

[2] = Hamster hepatocyte stability; conditions: cryopreserved hepatocytes; for half-life at 2 h, 2 µM: t1/2 (hamster hepatocytes), without ritonavir
[3] = in vitro; conditions: hamster, hepatocytes; for hepatocyte CLint at 2 h, 4 µM: CLint (hamster hepatocytes + ritonavir 4:1); for hepatocyte CLint at 2 h, 2 µM: CLint (hamster hepatocytes)
[4] = biological target: T2, Calpain-1 (Homo sapiens, UniProt P07384); assay: Protease panel: Calpain-1; assay type: biochemical
T2 construct: erythrocytes; tissue Eurofins Discovery (assay service); host or cells: human erythrocytes
T2 sequence (P07384 1-714): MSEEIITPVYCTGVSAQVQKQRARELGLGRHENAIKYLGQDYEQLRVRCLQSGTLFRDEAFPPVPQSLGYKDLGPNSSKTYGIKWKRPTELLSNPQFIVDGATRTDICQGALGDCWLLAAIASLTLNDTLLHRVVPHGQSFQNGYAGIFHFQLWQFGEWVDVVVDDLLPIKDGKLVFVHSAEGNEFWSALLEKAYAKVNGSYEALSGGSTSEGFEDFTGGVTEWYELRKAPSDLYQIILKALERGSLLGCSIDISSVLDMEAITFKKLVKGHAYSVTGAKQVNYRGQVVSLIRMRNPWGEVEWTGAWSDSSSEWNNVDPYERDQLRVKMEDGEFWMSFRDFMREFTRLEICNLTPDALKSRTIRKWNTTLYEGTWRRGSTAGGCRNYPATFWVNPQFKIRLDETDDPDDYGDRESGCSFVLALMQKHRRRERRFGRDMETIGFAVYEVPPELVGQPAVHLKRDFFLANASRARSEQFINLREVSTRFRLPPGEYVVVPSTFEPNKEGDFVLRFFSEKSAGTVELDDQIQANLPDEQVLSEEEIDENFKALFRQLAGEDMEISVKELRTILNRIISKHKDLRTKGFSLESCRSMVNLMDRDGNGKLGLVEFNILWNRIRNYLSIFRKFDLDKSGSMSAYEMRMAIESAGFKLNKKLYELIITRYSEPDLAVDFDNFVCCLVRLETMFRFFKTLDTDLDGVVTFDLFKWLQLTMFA
T2 sequence (P04632 1-268 partner): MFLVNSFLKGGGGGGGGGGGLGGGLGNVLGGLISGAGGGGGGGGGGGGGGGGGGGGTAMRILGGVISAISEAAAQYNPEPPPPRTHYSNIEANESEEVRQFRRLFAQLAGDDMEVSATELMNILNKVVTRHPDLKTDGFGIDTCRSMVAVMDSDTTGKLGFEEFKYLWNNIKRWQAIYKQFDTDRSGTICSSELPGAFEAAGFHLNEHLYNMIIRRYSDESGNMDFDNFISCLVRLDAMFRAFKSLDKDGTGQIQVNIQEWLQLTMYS

[5] = biological target: T3, Neutrophil Elastase 2 (Homo sapiens, UniProt P08246); assay: Protease panel: Neutrophil Elastase 2; assay type: biochemical
T3 construct: neutrophils; tissue Eurofins Discovery (assay service); host or cells: human neutrophils
T3 sequence (P08246 30-267): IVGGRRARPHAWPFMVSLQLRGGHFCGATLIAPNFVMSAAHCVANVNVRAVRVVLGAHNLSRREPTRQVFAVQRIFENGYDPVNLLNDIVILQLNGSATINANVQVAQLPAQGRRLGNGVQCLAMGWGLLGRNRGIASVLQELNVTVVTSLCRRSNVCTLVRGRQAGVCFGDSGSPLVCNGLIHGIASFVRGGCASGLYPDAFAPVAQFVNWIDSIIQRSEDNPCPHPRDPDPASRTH

[6] = biological target: T4, Cathepsin D (Homo sapiens, UniProt P07339); assay: Protease panel: Cathepsin D; assay type: biochemical
T4 construct: Human liver; tissue Eurofins Discovery (assay service); host or cells: human liver

[7] = biological target: hamster CTSL (Mesocricetus auratus, UniProt Q812A7); assay: hamster CTSL biochemical assay
[8] = Hamster liver microsomal stability; conditions: microsomes, pH 7.4
[9] = in vitro; conditions: human, microsomes, pH 7.4
[10] = 3 h, 2 µM
[11] = in vitro; conditions: mouse, plasma, mouse plasma protein binding
[12] = in vitro; conditions: human, hepatocytes
[13] = biological target: human cathepsin B (hCTSB) (Homo sapiens, UniProt P07858); assay: hCTSB biochemical assay
[14] = test system: SARS-CoV-2; assay: microbe, parasite or virus in culture; assay type: cell-based
[15] = Human hepatocyte stability; conditions: cryopreserved hepatocytes
[16] = physchem; conditions: pH 7.4
[17] = in vitro; conditions: mouse, hepatocytes; for hepatocyte CLint at 2 h, 2 µM: CLint (mouse hepatocytes)
[18] = hamster, in vivo, ip, 100 mg/kg
[19] = in vitro; conditions: hamster, microsomes, pH 7.4
[20] = Human liver microsomal stability; conditions: microsomes, pH 7.4
[21] = Mouse hepatocyte stability; conditions: mouse, cryopreserved hepatocytes
[22] = test system: trypsin; assay: Protease panel: trypsin
[23] = % remaining at 120 min (hamster hepatocytes, compound/ritonavir 1:1)
[24] = % remaining at 120 min (hamster hepatocytes, compound/ritonavir 2:1)
[25] = CLint (hamster hepatocytes, compound/ritonavir 1:1)
[26] = CLint (hamster hepatocytes, compound/ritonavir 2:1)
[27] = t1/2 (hamster hepatocytes, compound/ritonavir 1:1)
[28] = t1/2 (hamster hepatocytes, compound/ritonavir 2:1)
[29] = Severe acute respiratory syndrome coronavirus 2, Vero C1008, read-out: SARS-CoV-2 CPE reduction assay pEC50 (converted)

T1 sequence (P07711 114-333): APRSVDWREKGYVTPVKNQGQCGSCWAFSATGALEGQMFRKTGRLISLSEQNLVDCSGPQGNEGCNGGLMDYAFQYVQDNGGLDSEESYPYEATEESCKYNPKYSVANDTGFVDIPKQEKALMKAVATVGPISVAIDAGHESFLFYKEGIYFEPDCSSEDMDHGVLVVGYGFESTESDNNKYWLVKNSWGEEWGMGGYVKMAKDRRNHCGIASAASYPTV
T4 sequence (P07339 65-412): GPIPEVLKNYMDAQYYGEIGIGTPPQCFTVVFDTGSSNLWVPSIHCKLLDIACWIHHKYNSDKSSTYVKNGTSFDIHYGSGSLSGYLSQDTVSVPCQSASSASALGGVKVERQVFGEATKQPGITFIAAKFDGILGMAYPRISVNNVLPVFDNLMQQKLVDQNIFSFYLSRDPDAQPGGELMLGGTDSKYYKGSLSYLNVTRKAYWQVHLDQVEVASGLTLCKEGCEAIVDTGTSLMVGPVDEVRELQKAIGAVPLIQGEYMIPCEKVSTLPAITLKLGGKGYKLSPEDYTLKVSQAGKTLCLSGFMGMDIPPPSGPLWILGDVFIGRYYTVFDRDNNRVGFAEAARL
Chain of hamster CTSL (Q812A7 entry or part of it): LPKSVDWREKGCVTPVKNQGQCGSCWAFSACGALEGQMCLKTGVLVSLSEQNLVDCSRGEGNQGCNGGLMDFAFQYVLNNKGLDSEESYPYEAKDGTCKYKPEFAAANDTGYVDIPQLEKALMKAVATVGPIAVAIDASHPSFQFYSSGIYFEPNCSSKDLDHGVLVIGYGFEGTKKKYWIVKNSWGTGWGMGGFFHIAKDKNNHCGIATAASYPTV

Structure (SMILES)	hCTSL biochemical assay pIC50 [1]	half-life at 2 h, 2 µM [2]	remaining at 2 h, 1 µM [3, 23]	remaining at 2 h, 1 µM [3, 24]	hepatocyte CLint at 2 h, 4 µM [3]	hepatocyte CLint at 2 h, 2 µM [3]	hepatocyte CLint at 1 µM [3, 25]	hepatocyte CLint at 1 µM [3, 26]	half-life at 1 µM [3, 27]	half-life at 1 µM [3, 28]	inhibition at 10 µM [4]	inhibition at 10 µM [5]	inhibition at 10 µM [6]	pIC50 (hamster CTSL) [7]	half-life at 1 µM [8]	microsomal CLint [9]	remaining at 1 h [9]	mouse plasma protein binding, fraction bound (Fb) [10]	fraction unbound at 3 h, 2 µM ([11]; fraction bound (Fb))	fraction unbound at 3 h, 2 µM ([11]; fraction unbound (Fu))	also measured
COc1cccc2[nH]c(C(=O)N[C@@H](Cc3cccc(F)c3)C(=O)N[C@@H](C[C@@H]3CCNC3=O)C(=O)COc3c(F)c(F)c(CO)c(F)c3F)cc12 [compound 1, N-((S)-3-(3-Fluorophenyl)-1-oxo-1-(((S)-3-oxo-1-((S)-2-oxopyrrolidin-3-yl)-4-(2,3,5,6-tetrafluoro-4-(hydroxymethyl)phenoxy)butan-2-yl)amino)propan-2-yl)-4-methoxy-1H-indole-2-carboxamide]	7.54	7.9 min	2.51%	0.56%	77.1 µL/min/1e6 cells	87.6 µL/min/1e6 cells	31.4 µL/min/1e6 cells	48.1 µL/min/1e6 cells	22.1 min	14.4 min	3%	2%	8%	8.34 ± 0.09	0.58 min	350 µL/min/mg	0%	98.06%	0.0194	0.0194	half-life at 2 h, 4 µM ([3]; t1/2 (hamster hepatocytes + ritonavir 4:1)): 9 min; hepatocyte CLint at 2 h, 2 µM [12]: 12.5 µL/min/1e6 cells; hCTSB biochemical assay pIC50 [13]: 6.36; EC50 ([14]; Severe acute respiratory syndrome coronavirus 2, Vero C1008, read-out: EC50 (CPE)): 130 nM; EC50 [14, 29]: 129 nM; half-life at 2 h, 2 µM [15]: 55.5 min; logD at 1 h [16]: 1.65; hepatocyte CLint at 2 h, 2 µM [17]: 186 µL/min/1e6 cells; clinical signs upon intraperitoneal dosing [18]: no clinical signs have been observed; microsomal CLint at 1 µM [19]: 2370 µL/min/mg; remaining at 1 h, 1 µM [19]: 0%; half-life [20]: 4.04 min; half-life at 1 µM [21]: 9.3 min; Trypsin inhibition at 10 μM [22]: -3.4 ± 9.0%
CC(C)(O)c1c(F)c(F)c(OCC(=O)[C@H](C[C@@H]2CCNC2=O)NC(=O)[C@@H]2[C@@H]3[C@H](CN2C(=O)[C@@H](NC(=O)C(F)(F)F)C(C)(C)C)C3(C)C)c(F)c1F [compound 14, (1R,2S,5S)-3-((S)-3,3-Dimethyl-2-(2,2,2-trifluoroacetamido)butanoyl)-6,6-dimethyl-N-((S)-3-oxo-1-((S)-2-oxopyrrolidin-3-yl)-4-(2,3,5,6-tetrafluoro-4-(2-hydroxypropan-2-yl)phenoxy)butan-2-yl)-3-azabicyclo[3.1.0]hexane-2-carboxamide]	< 4.30	11.2 min	28.8%	4.42%	44.7 µL/min/1e6 cells	62.1 µL/min/1e6 cells	9.3 µL/min/1e6 cells	25.4 µL/min/1e6 cells	74.5 min	27.2 min	-7%	4%	-23%	4.67 ± 0.33	1.73 min	40 µL/min/mg	30.2%	99.24%	0.0076	0.0076	hCTSL activity (in words) ([1]; biochemical assay): no hCTSL and hCTSB activity was observed; half-life at 1 µM ([2]; with ritonavir 0.25 µM (compound/ritonavir 4:1), t1/2 (hamster hepatocytes + ritonavir 4:1), compound/ritonavir 4:1): 15.5 min; hepatocyte CLint at 2 h, 2 µM [12]: 6.6 µL/min/1e6 cells; hCTSB biochemical assay pIC50 [13]: < 4.30; hCTSB activity (in words) ([13]; biochemical assay): no hCTSL and hCTSB activity was observed; EC50 [14, 29]: 39.8 nM; half-life at 2 h, 2 µM [15]: 105 min; logD at 1 h [16]: 2.52; hepatocyte CLint at 1 µM ([17]; CLint (mouse hepatocytes + ritonavir 4:1)): 26.7 µL/min/1e6 cells; hepatocyte CLint at 2 h, 2 µM [17]: 112 µL/min/1e6 cells; clinical signs upon intraperitoneal dosing ([18]; female, Syrian golden): the animals were found dull and lethargic 15 min up until 45 min postdosing; microsomal CLint at 1 µM [19]: 377 µL/min/mg; remaining at 1 h, 1 µM [19]: 0.1%; half-life [20]: 35 min; half-life at 1 µM [21]: 15.5 min; Trypsin inhibition at 10 μM [22]: 10.2 ± 3.3%
